Source: patent US11401278B2, “Macrocyclic indole derivatives” (The Broad Institute, Inc., priority 2017, dated 2022)
Counter-ions that a name gives are not always drawn. Like-named read-outs stand apart in the source and are kept apart here.

How the values were obtained:
SUDHL10 = assay: Induction of cytotoxicity (Assay 6), SUDHL10; conditions: read-out: Cytotox SUDHL10 [M] (median) IC50, CellTiter-Glo, 5 hours, SUDHL10
SUDHL5 [1] = assay: Antiproliferation assay (Assay 7), SUDHL5; type: cell-based; conditions: CellTiter-Glo, median, read-out: Antiproli SUDHL5 [M] (median) IC50
Summary of the method: (§1)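 Anti-proliferative effect is determined from CellTiter-Glo signal after a 72-hour incubation at 37° C, with a time-zero reference plate measured in parallel.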

BCL-2 = BCL-2 (Homo sapiens (Human), UniProt P10415); assay: Protein-protein interaction assay BCL-2/Bad BH3 peptide (BCL-2 assay, TR-FRET); type: binding; conditions: His-BCL-2 / Bad BH3 peptide, median
Chain of BCL-2 (P10415 other isoform, or with tags, fused parts or gaps): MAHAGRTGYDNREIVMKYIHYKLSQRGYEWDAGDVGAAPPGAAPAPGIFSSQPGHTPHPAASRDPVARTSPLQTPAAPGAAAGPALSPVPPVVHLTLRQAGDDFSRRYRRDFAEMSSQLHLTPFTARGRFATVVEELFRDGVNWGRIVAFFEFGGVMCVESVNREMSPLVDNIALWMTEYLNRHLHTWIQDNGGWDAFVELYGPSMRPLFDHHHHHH
Procedure: Assay 3 Protein-Protein Interaction Assay: BCL-2/Bad BH3 Peptide (BCL-2 Assay)
The dose-dependent inhibition by the compounds described in this invention of the interaction between BCL-2 and the BH3 domain of Bad (both human) was determined using a steady state binding competition assay with time-resolved fluorescence energy transfer (TR-FRET) readout. For that purpose BCL-2 (amino acids 1-211, C-terminal fused to a hexahistidine (6×His) tag (SEQ ID 5) and a synthetic Bad BH3-derived peptide of sequence Biotin-PEG2-PEG2-NLWAAQRYGRELRR-Nle-SDEFVDSFKK-amide (SEQ ID 4) served as protein receptor and tracer ligand respectively. The recombinant BCL-2 protein (expressed in E. coli) was purchased from BPS Bioscience (San Diego, Calif., USA). The Bad BH3-derived peptide can be obtained from e.g. Biosyntan (Berlin, Germany).
In the assay 11 different concentrations of each compound (0.1 nM, 0.33 nM, 1.1 nM, 3.8 nM, 13 nM, 44 nM, 0.15 μM, 0.51 μM, 1.7 μM, 5.9 μM and 20 μM) were typically measured as duplicates in the same microtiter plate. For that, 100-fold concentrated DMSO solutions were prepared by serial dilutions (1:3.4) of a 2 mM stock solution in a clear, 384-well microtiter plate (Greiner Bio-One, Frickenhausen, Germany). From there, 50 nl were transferred in a dark test plate (Greiner Bio-One, Frickenhausen, Germany). The assay was initiated by addition of 2 μl of a 2.5-fold concentrated His-BCL-2 solution (usually for a 1 nM end concentration in 5 μl reaction volume) in aqueous assay buffer [50 mM Tris/HCl pH 7, 100 mM sodium chloride (NaCl), 50 mM potassium fluoride (KF), 0.005% Tween-20, 2 mM DTT, 0.1% bovine gamma globulin (BGG)] to the compounds in the assay plate. This was followed by a 10-minute incubation step at 22° C. for pre-equilibration of the putative complex between His-BCL-2 and the compounds. After that, 3 μl of a 1.67-fold concentrated solution (in assay buffer) consisting of Bad BH3-derived peptide (1 nM end concentration) and TR-FRET detection reagents [1.67 nM anti-His-Eu cryptate and 1.67 nM streptavidin-XL665 (both from Cisbio Bioassays, Codolet, France)], were added.
The mixture was incubated in the dark for one hour at 22° C. and then overnight at 4° C. The formation of BCL-2/Bad complexes was determined by measuring the resonance energy transfer of the anti-His-Eu-cryptate antibody to the streptavidin-XL665 present in the reaction. For that purpose, the fluorescence emission at 620 nm and 665 nm after excitation at 330-350 nm was measured in a TR-FRET measuring instrument, for instance a Rubystar or a Pherastar (both from BMG Lab Technologies, Offenburg, Germany) or a Viewlux (Perkin-Elmer). The ratio of the emission at 665 nm and at 622 nm was used as indicator of the amount of BCL-2/Bad complexes present.
The resulting data (ratio) were normalized, taking 0% inhibition as the mean value of control measurements (usually 32 data points) where all reagents were included. In this case 50 nl DMSO were used instead of compounds. A 100% inhibition corresponded to the mean value of control measurements (usually 32 data points) where all reagents except BCL-2 were included. IC50 values were determined by regression analysis based on a 4 parameter equation (minimum, maximum, IC50, Hill; Y=Max+(Min−Max)/(1+(X/IC50)^HiII) using the Screener Software (Genedata).

SUDHL5 [2] = assay: Induction of caspase-3/7 activity (Assay 4), SUDHL5; type: cell-based; conditions: caspase-3/7 induction, median
Summary of the method: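 Caspase-3/7 activity measured by Caspase-Glo 3/7 luminescence in DLBCL cells after 3 h compound treatment at 37 °C. Medium-only background subtracted. EC50 fitted with C0 fixed at 1 and top set to the reference compound's plateau/max induction.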

AMO-1 = assay: Antiproliferation assay (Assay 7), AMO-1; type: cell-based; conditions: Homo sapiens, AMO1, 72 h, CellTiter-Glo, several values per example, read-out: Antiproli AMO-1 [M] IC50
Summary of the method: as §1

Compound | IC50 (SUDHL5 [1]; Homo sapiens, SU-DHL-5, 72 h) [M] | IC50 (BCL-2) [nM] | EC50 (SUDHL5 [2]; Homo sapiens, SU-DHL-5, 3 h) [nM] | IC50 (SUDHL5 [1]; 72 hours) [M] | EC50 (SUDHL5 [2]; 3 hours) [nM] | IC50 (SUDHL10; Homo sapiens, SU-DHL10, 5 h) [M] | IC50 (SUDHL10) [M] | IC50 (AMO-1) [M]
Cc1c2c(nn1C)C(CCN1CCOCC1)N(C)S(=O)(=O)CCCn1c(C(=O)O)c(CCCOc3cccc4cc(F)ccc34)c3ccc(Cl)c-2c31 (racemic) [Example 48, (rac)-4-chloro-7-{3-[(6-fluoro-1-naphthyl)oxy]propyl}-2,3,14-trimethyl-15-(rac)-[2-(morpholin-4-yl)ethyl]-11,12,14,15-tetrahydro-2H,10H-pyrazolo[3′,4′:4,5][1,2,8]thiadiazacycloundecino[6,7,8-hi]indole-8-carboxylic acid 13,13-dioxide (Mixture of Stereoisomers)] | 3.1e-08 | > 20000 |  |  | 13 |  | 1.2e-08 | 
Cc1c2c(nn1C)CNS(=O)(=O)CCCn1c(C(=O)O)c(CCCOc3cccc4cc(F)ccc34)c3ccc(Cl)c-2c31 (racemic) [Example 50, (rac)-4-chloro-7-{3-[(6-fluoro-1-naphthyl)oxy]propyl}-2,3-dimethyl-11,12,14,15-tetrahydro-2H,10H-pyrazolo[3′,4′:4,5][1,2,8]thiadiazacycloundecino[6,7,8-hi]indole-8-carboxylic acid 13,13-dioxide] | 2e-06 | > 20000 | 650 |  |  | 3.8e-06 |  | 
Cc1c2c(nn1C)CNS(=O)(=O)CCCn1c(C(=O)O)c(CCCOc3cccc4cc(F)ccc34)c3ccc(Cl)c-2c31 (single isomer, unassigned; enantiomer 1) [Example 51, 4-chloro-7-{3-[(6-fluoronaphthalen-1-yl)oxy]propyl}-2,3-dimethyl-13,13-dioxo-10,11,12,13,14,15-hexahydro-2H-13lambda^6-pyrazolo[3′,4′:4,5][1,2,8]thiadiazacycloundecino[6,7,8-hi]indole-8-carboxylic acid (Enantiomer 1)] |  | > 20000 |  | 4.1e-07 | 340 |  | 9.8e-07 | 
Cc1c2c(nn1C)CN(CCN1CCOCC1)S(=O)(=O)CCCn1c(C(=O)O)c(CCCOc3cccc4ccccc34)c3cccc-2c31 (single isomer, unassigned; enantiomer 2) [Example 3, 2,3-Dimethyl-14-[2-(morpholin-4-yl)ethyl]-7-{3-[(naphthalen-1-yl)oxy]propyl}-13,13-dioxo-10,11,12,13,14,15-hexahydro-2H-13λ^6-pyrazolo[3′,4′:4,5][1,2,8]thiadiazacycloundecino-[6,7,8-hi]indole-8-carboxylic acid-N-ethylethanamine salt (Enantiomer 2)] |  | > 20000 |  | 1.5e-05 | > 33000 |  | > 3.3e-05 | 
CCc1c2c(nn1C)CN(CCN1CCOCC1)S(=O)(=O)CCCn1c(C(=O)O)c(CCCOc3cccc4cc(F)ccc34)c3ccc(Cl)c-2c31 [Example 77, (rac)-13-chloro-12-ethyl-1-(3-((6-fluoronaphthalen-1-yl)oxy)propyl)-11-methyl-8-(2-morpholinoethyl)-5,6,9,11-tetrahydro-4H,8H-pyrazolo[3′,4′:4,5][1]thia[2,8]diazacycloundecino[6,7,8-hi]indole-2-carboxylic acid 7,7-dioxide] | 7.2e-06 | > 20000 | 4800 |  |  | 1.3e-05 |  | 

The next lines start with results.

IC50 (SUDHL5 [1]; Homo sapiens, SU-DHL-5, 72 h) [M] | IC50 (BCL-2) [nM] | EC50 (SUDHL5 [2]; Homo sapiens, SU-DHL-5, 3 h) [nM] | IC50 (SUDHL5 [1]; 72 hours) [M] | EC50 (SUDHL5 [2]; 3 hours) [nM] | Compound | IC50 (SUDHL10; Homo sapiens, SU-DHL10, 5 h) [M] | IC50 (SUDHL10) [M] | IC50 (AMO-1) [M]
7.2e-06 | > 20000 | 4800 |  |  | Cc1c2c(nn1C)CN(CCN1CCOCC1)S(=O)(=O)CCCn1c(C(=O)O)c(CCCOc3cccc4ccccc34)c3cccc-2c31 (racemic) [Example 1, (rac)-2,3-Dimethyl-14-[2-(morpholin-4-yl)ethyl]-7-{3-[(naphthalen-1-yl)oxy]propyl}-13,13-dioxo-10,11,12,13,14,15-hexahydro-2H-13λ^6-pyrazolo[3′,4′:4,5][1,2,8]thiadiazacycloundecino-[6,7,8-hi]indole-8-carboxylic acid] | 1.3e-05 |  | 
 | > 20000 |  | 9.2e-07 | 630 | Cc1c2c(nn1C)CN(C)S(=O)(=O)CCCn1c(C(=O)O)c(CCCOc3cccc4ccccc34)c3ccc(Cl)c-2c31 (racemic) [Example 4, (rac)-4-Chloro-2,3,14-trimethyl-7-{3-[(naphthalen-1-yl)oxy]propyl}-13,13-dioxo-10,11,12,13,14,15-hexahydro-2H-13λ^6-pyrazolo[3′,4′:4,5][1,2,8]thiadiazacycloundecino-[6,7,8-hi]indole-8-carboxylic acid] |  | 1.2e-06 | 2.5e-06
 | > 20000 | 1600 |  |  | CCc1c2c(nn1C)CN(C)S(=O)(=O)CCCn1c(C(=O)O)c(CCCOc3cc(C)c(Cl)c(C)c3)c3ccc(F)c-2c31 (racemic) [Example 33, (rac)-1-(3-(4-Chloro-3,5-dimethylphenoxy)propyl)-12-ethyl-13-fluoro-8,11-dimethyl-5,6,9,11-tetrahydro-4H,8H-pyrazolo[3′,4′:4,5][1]thia[2,8]diazacycloundecino[6,7,8-hi]indole-2-carboxylic acid 7,7-dioxide] | 6.4e-06 |  | 4.8e-06
8.2e-07 | > 20000 | 1300 |  |  | CCc1c2c(nn1C)CN(C)S(=O)(=O)CCCn1c(C(=O)O)c(CCCOc3cccc4c3CCCC4)c3ccc(F)c-2c31 (racemic) [Example 34, (rac)-12-Ethyl-13-fluoro-8,11-dimethyl-1-(3-((5,6,7,8-tetrahydronaphthalen-1-yl)oxy)propyl)-5,6,9,11-tetrahydro-4H,8H-pyrazolo[3′,4′:4,5][1]thia[2,8]diazacycloundecino[6,7,8-hi]indole-2-carboxylic acid 7,7-dioxide] | 2.4e-06 |  | 
6.3e-07 | > 20000 | 220 |  |  | Cc1c2c(nn1C)C(N1CCOCC1)CCN(C)S(=O)(=O)CCCn1c(C(=O)O)c(CCCOc3cccc4cc(F)ccc34)c3ccc(Cl)c-2c31 (racemic) [Example 47, (rac)-15-chloro-1-(3-((6-fluoronaphthalen-1-yl)oxy)propyl)-8,13,14-trimethyl-11-(rac)-morpholino-5,6,9,10,11,13-hexahydro-4H,8H-pyrazolo[3′,4′:6,7][1]thia[2,10]diazacyclotridecino[8,9,10-hi]indole-2-carboxylic acid 7,7-dioxide (Mixture of Stereoisomers)] | 3.4e-07 |  | 
8.5e-07 | 20000 | 210 |  |  | COc1ccc(CN2Cc3nn(C)c(C)c3-c3c(Cl)ccc4c(CCCOc5cccc6cc(F)ccc56)c(C(=O)O)n(c34)CCCS2(=O)=O)c(OC)c1 (racemic) [Example 49, (rac)-4-chloro-14-(2,4-dimethoxybenzyl)-7-{3-[(6-fluoro-1-naphthyl)oxy]propyl}-2,3-dimethyl-11,12,14,15-tetrahydro-2H,10H-pyrazolo[3′,4′:4,5][1,2,8]thiadiazacycloundecino[6,7,8-hi]indole-8-carboxylic acid 13,13-dioxide] | 2.2e-07 |  | 
